Source: US20120142730A1 (priority 2010, published 2012)

Tested on: subjects with relapsing remitting multiple sclerosis (RRMS)
Assay: ALLEGRO phase III trial: disability endpoints (EDSS, MSFC)
Format: in vivo, human
Conditions: for Patients with confirmed (3 months) EDSS progression: after 24 months
Protocol: Eligible subjects were equally randomized 1:1 into one of the following treatment arms: • 1. […] 21, 2007 (see, page 10, line 5 to page 11, line 3). • 2. Matching placebo for laquinimod arm: one capsule is administered once daily. Secondary endpoints were disability progression as measured by the EDSS and the Multiple Sclerosis Functional Composite (MSFC). Confirmed disability progression was defined as an increase of ≧1.0 EDSS point from baseline if baseline EDSS was between 0 and 5.0, or an increase of ≧0.5 point if baseline EDSS was ≧5.5. In order to confirm EDSS progression, these increases had to be sustained for at least three months. Additional predefined disability endpoints include the proportion of patients without confirmed disability progression at 24 months; confirmed disability progression (defined as change in EDSS scores≧1.0 points for baseline EDSS 0 to 5.0 or ≧5.5) sustained for six months; the accumulation of physical disability as measured by mean EDSS and the mean change in EDSS from baseline to last observed value (LOV). For the MSFC, the measure was the total MSFC z score at 24 months (including patients who terminated after 12 months). The 9-hole peg test (9HPT) and the Paced Auditory Serial Addition Test (PASAT) were performed three times at screening to reduce confounding training effects during the trial. The analysis of the accumulation of physical disability is based on Cox's Proportional Hazard model. The analysis of MSFC is based on baseline-adjusted Analysis of Covariance. The analysis of the secondary MRI endpoints is based on baseline-adjusted Negative Binomial Regression. To control against type-I error, the secondary endpoints were analyzed only after a significant effect was found for the primary endpoint. Likewise, the study's overall type-I error was further controlled in the analysis of the secondary endpoints by applying the following gate-keeping approach: both the cumulative number of new/enlarging T2 and the cumulative number of GdE lesions at months 12 and 24 were tested simultaneously and needed to be statistically significant at p<0.05, or one needed to be significant at p<0.025 if the other endpoint was not statistically significant at the 5% level. If the above condition was met, the study then proceeded to the analysis of the confirmed EDSS progression endpoint, if this endpoint was significant at 5% level, the analysis was done for the total MSFC z-scores. The analysis of risk to confirmed disability progression using the ITT cohort was based on Cox's Proportional Hazard model adjusted to baseline EDSS, log of the prior 2 year number of relapses +1 and geographical region. The MSFC at month 24 was analyzed using a baseline-adjusted ANCOVA (SAS@PROC GLM) with baseline MSFC as 1 degree of freedom covariate and baseline EDSS score, log of the 2-year prior relapse rate +1 and country or geographical region as additional covariates.

[1] = 0.6 mg daily oral, listed as laquinimod

SMILES: CCN(C(=O)c1c(O)c2c(Cl)cccc2n(C)c1=O)c1ccccc1 [Laquinimod, laquinimod]
- Median EDSS score at LOV (0.6 mg daily oral): 2.5
- Decrease in the risk for 6 month confirmed EDSS progression (0.6 mg daily oral vs placebo): 48%
- Reduction in risk of confirmed progression requiring persistence of EDSS change at the last available visit (0.6 mg daily oral vs placebo): 35%
- Time to confirmed (3 Ms) progression EDSS: reduction of risk to progress (0.6 mg daily oral vs placebo): 36% reduction of risk
- Adjusted mean total MSFC z score at 24 months, difference from placebo (0.6 mg daily oral vs placebo, p=0.5893): no significant differences
- Time to confirmed (3 Ms) progression EDSS: reduction of risk to progress (0.6 mg daily oral vs placebo, listed as laquinimod): 36%
- Patients with confirmed (3 months) EDSS progression (0.6 mg daily oral): 9.8% progressed
- Patients with confirmed (3 months) EDSS progression [1]: 9.8%
- Mean EDSS score at LOV (0.6 mg daily oral, baseline adjusted ANCOVA): 2.68
- Patients with no confirmed disability progression at LOV (0.6 mg daily oral, n = 550): (90.2%)
- Patients with no confirmed disability progression at LOV, number (0.6 mg daily oral, n = 550): 496
- MSFC total z score at 24 months (including early terminations after 12 months), mean [1]: 0.056
- Patients who progressed and also had a relapse during the study (post-hoc subgroup analysis, 33/54 patients): 61.1%
